Consider four molecules from patent US20200164084A1, “ANTIBODY CONJUGATES COMPRISING TOLL-LIKE RECEPTOR AGONIST AND COMBINATION THERAPIES” (NOVARTIS AG, priority 2017, published 2020).

Where only a bound is given, the exact number is not on record here.

In one data set the target is T1, human TLR7 (Homo sapiens, UniProt Q9NYK1).
T1 construct: expressed in transfected cells; host or cells: HEK293
T1 sequence (Q9NYK1 27-1049): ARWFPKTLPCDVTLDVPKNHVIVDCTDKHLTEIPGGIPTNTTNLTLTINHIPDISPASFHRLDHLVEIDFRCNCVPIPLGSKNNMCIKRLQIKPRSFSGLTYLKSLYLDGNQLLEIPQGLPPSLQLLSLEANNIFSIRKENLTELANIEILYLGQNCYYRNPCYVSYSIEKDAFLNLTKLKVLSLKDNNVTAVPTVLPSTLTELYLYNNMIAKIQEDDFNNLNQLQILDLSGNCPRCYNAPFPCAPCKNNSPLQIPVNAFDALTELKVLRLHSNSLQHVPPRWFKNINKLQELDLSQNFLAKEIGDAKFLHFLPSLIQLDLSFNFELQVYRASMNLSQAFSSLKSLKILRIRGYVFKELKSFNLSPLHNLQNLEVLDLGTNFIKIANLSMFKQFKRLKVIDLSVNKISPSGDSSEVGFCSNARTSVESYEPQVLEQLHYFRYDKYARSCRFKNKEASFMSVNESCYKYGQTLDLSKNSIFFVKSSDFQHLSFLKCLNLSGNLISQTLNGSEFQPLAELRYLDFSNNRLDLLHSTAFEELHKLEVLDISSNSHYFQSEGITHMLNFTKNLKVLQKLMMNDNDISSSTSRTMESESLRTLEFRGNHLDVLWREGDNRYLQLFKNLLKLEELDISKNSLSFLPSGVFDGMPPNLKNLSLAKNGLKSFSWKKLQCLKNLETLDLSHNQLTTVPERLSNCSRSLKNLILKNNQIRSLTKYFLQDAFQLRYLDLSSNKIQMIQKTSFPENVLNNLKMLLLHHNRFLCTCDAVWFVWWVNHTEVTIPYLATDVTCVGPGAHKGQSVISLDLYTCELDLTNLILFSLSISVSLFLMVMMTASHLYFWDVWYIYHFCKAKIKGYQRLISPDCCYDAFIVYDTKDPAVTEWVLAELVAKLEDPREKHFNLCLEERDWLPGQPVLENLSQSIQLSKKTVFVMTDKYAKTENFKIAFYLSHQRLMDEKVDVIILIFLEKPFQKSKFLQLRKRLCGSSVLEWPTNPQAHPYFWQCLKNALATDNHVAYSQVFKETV
As to the kind of experiment: TLR7 reporter gene assay (HEK293, NF-kB-driven luciferase). In kind it is cell-based. Particulars: HEK293 cells stably transfected with human TLR7 and NF-kB-driven luciferase reporter. As to the method: Compounds of Formula (I) were assayed to measure their activity as toll-like receptor 7 agonists.
As a control assay, normal HEK293 transfected with pNifty-Luc were used. […] Bright-Glo™ Luciferase assay buffer and substrate were supplied by Promega # E263B and # E264B (assay substrate and buffer respectively). 384 well clear-bottom plates were supplied by Greiner bio-one (#789163-G) and were custom bar-coded plates.
Cells were plated at 25,000 cells/well in 384-well plates in a final volume of 50 μl of media. Cells were allowed to adhere to the plates after overnight (18 hours) culture at 37° C. and 5% CO2. Serially diluted experimental and positive control compounds were then dispensed to each well and incubated for 7 hours at 37° C. and 5% CO2. Cells stimulated with DMSO alone also serve as negative controls. After the incubation, 30 μl of the pre-mix assay buffer and substrate buffer were added to each well according to manufacturer's instructions. The luminescence signal was read on a CLIPR machine with an integration time of 20 seconds per plate.

Data set [1] is described as follows: In vitro stability of conjugates in mouse serum (deconjugation and succinimide ring hydrolysis by LC-MS). In kind it is in vitro ADME. Particulars: anti-HER2 mAb2 conjugates, 37° C. As to the method: The stability of the bond formed between maleimide containing payloads and Cys residues of the antibody is enhanced by the hydrolysis of the succinimide ring formed in this reaction. The effects of succinimide ring hydrolysis on the stability of antibody conjugates prepared with agonist compounds of the invention were studied after in vitro incubation in mouse serum. Mass changes resulting from payload deconjugation and the hydrolysis of the succinimide ring of maleimide payloads conjugated to antibodies were monitored by LC-MS. The hydrolysis of the succinimide ring has been reported to be stimulated by certain conditions such as high pH, high temperature, or high salts (J. Am. Chem. Soc. 1955, 77: 3922; Biochemistry 1976, 15: 2836; Biochem. J. 1979, 179: 191-197; J Pharm Sci. 1984, 73:1767-1771; Bioorg. Med. Chem. Lett. 17: 6286-6289, 2007). To probe the in vitro stability of conjugates, anti-HER2 antibody mAb2 conjugates were incubated at 37° C. in 50-70% mouse serum. […] The light chain, heavy chain Fab, and heavy chain Fc fragments were then analyzed by ESI-MS. The relative populations of deconjugated antibody, conjugates with attached payload with hydrolyzed succinimide ring, and conjugates with attached payload with intact succinimide ring, were calculated from the relative MS intensities of the corresponding conjugate species. […]

Regarding `CCCC[C@@H](CO)Nc1nc(N)nc2ccn(Cc3cc(CN4CCN(C(=O)CCCC(=O)NCCCC[C@H](N)C(=O)O)CC4)ccc3OC)c12` [Compound C-48, (S)-2-amino-6-(5-(4-(3-((2-amino-4-(((S)-1-hydroxyhexan-2-yl)amino)-5H-pyrrolo[3,2-d]pyrimidin-5-yl)methyl)-4-methoxybenzyl)piperazin-1-yl)-5-oxopentanamido)hexanoic acid], the response at human TLR7 was half-maximal at 1900 nM (EC50).
With `CCCCCNc1nc(N)nc2ccn(Cc3ccc(CN4CCN(CCO)CC4)cc3OC)c12` [Compound C-68, 2-(4-(4-((2-amino-4-(pentylamino)-5H-pyrrolo[3,2-d]pyrimidin-5-yl)methyl)-3-methoxybenzyl)piperazin-1-yl)ethan-1-ol], the EC50 (commonly the concentration at which the effect is half-maximal) at human TLR7 was below 1 nM.
As for `CCCCCNc1nc(N)nc2ccn(Cc3ccc(CN4CCN(CCN5C(=O)C=CC5=O)CC4)cc3OC)c12` [Compound C-5, 1-(2-(4-(4-((2-amino-4-(pentylamino)-5H-pyrrolo[3,2-d]pyrimidin-5-yl)methyl)-3-methoxybenzyl)piperazin-1-yl)ethyl)-1H-pyrrole-2,5-dione], the “conjugate stability (deconjugation through reverse maleimide reaction, succinimide ring hydrolysis)” value in data set [1] is given as “improved conjugate stability”.
As to `CCCCCNc1nc(N)nc2ccn(Cc3ccc(CN4CCN(C(=O)CCOCCOCCNC(=O)CN5C(=O)C=CC5=O)CC4)cc3OC)c12` [Compound C-21, N-(2-(2-(3-(4-(4-((2-amino-4-(pentylamino)-5H-pyrrolo[3,2-d]pyrimidin-5-yl)methyl)-3-methoxybenzyl)piperazin-1-yl)-3-oxopropoxy)ethoxy)ethyl)-2-(2,5-dioxo-2,5-dihydro-1H-pyrrol-1-yl)acetamide], in data set [1], the “conjugate stability (deconjugation through reverse maleimide reaction, succinimide ring hydrolysis)” value is “improved conjugate stability”.
